Source: patent US20080194631A1, “Medicament For the Treatment of Central Nervous System Disorders” (priority 2004, published 2008)

Key:
C57/BL6J male mice = test: Motor and exploratory activity test in open-field (effects of the products on the locomotor activity); format: in vivo; conditions: ifenprodil alone, doses of less than 10 mg/kg
Procedure: (§1) The principle of the behavioral sensitization test is based on the measurement of the locomotor activity. The latter is measured in the open-field test.
Motor and Exploratory Activity Test in Open-Field
(§2) The animals used are 9-week old C57/BL6J male mice at the beginning of the experiment.
(§3) The open-fields used to measure the activity are 4 square chambers made of transparent plexiglas. Each open-field is arranged in a setting equipped with photoelectric cells which make it possible to record the movements of the animal.
The products used have known psychotropic properties. […] Since the principle of the study is based on the measurement of the locomotor activity, it is preferable to have a preliminary evaluation of these effects under the experimental conditions used.
All the products are dissolved in physiological saline (0.9% NaCl) so that the volume for injection is 10 ml/kg of body weight.
IFENPRODIL was tested at the following doses: 1 mg/kg; 3 mg/kg and 10 mg/kg.
The experiments were also performed in order to evaluate the effect of the combination of the products:

[1] = system: sensitization induced by amphetamine; test: Behavioral sensitization protocol (amphetamine), locomotor activity in open-field; format: in vivo, mice; conditions: repeated sessions, amphetamine 2 mg/kg
Procedure: as §1, §2, §3
Groups receive beforehand an administration of one of the products or the combination of both.
During the 1st session, the animals receive NaCl at the 1st and 2nd injection. The experiment is performed over several sessions, 2 to 10 days apart.
The experiments were performed on 5 groups of animals which received the following treatments at each session.

[2] = in vivo; cited from earlier work
[3] = system: stimulant effects of alcohol; conditions: in vivo; cited from earlier work
alcohol withdrawal = conditions: in vivo; cited from earlier work
[4] = system: hyperactivity induced by MK801; test: Model of locomotor hyperactivity induced by MK801; format: in vivo; conditions: clozapine 1 mg/kg
Procedure: Given the pharmacological profile of the molecules chosen toward the noradrenergic and serotoninergic receptors, an antipsychotic activity was sought. The substances were tested in the model of locomotor hyperactivity induced by MK801. […] In this model and under our experimental conditions, clozapine (1 mg/kg) reduces by 56% the hyperactivity induced by MK 801.
Effect of the combination 1 mg/kg ifenprodil+1 mg/kg cyproheptadine on the locomotor activity induced by MK801 (cm covered, mean +SEM).

| SMILES | effect on locomotion (C57/BL6J male mice) | effect on the development (and expression) of behavioral sensitization to amphetamine [1] | anxiolytic effects [2] | effect on the expression of sensitization (alcohol) [3] | effect on the stimulant effects of alcohol [3] | effect on the physical signs induced by alcohol withdrawal (alcohol withdrawal) | reduction of the hyperactivity induced by MK 801 [4] [%] |
| --- | --- | --- | --- | --- | --- | --- | --- |
| CC(C(O)c1ccc(O)cc1)N1CCC(Cc2ccccc2)CC1 (stereo not shown) [Ifenprodil] | does not have a significant effect | limited effects | anxiolytic effects | does not block | reduces | reduces |  |
| CN1CCN(C2=Nc3cc(Cl)ccc3Nc3ccccc32)CC1 [clozapine] |  |  |  |  |  |  | 56 |
